Test results taken from patent US10167262B2, “Herbicidal substituted 3-arylpyrazoles” (FMC CORPORATION, priority 2014, dated 2019).

What was measured:
Type in all cases: in vivo
[1] = system: waterhemp_RES2, (ALS & HPPD resistant common waterhemp, Amaranthus rudis); experiment: Test E postemergence greenhouse test, plant response rating 0-100; conditions: scale 0 to 100
Method in brief: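 Resistant waterhemp biotypes grown in peat/vermiculite medium and treated postemergence at 2–18 cm height (1- to 4-leaf stage). Kept in greenhouse 14 to 21 days, then visually rated against untreated controls on a 0–100 scale (0 no effect, 100 complete control).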

[2] = system: waterhemp (common waterhemp, Amaranthus rudis); experiment: Test C pre-/postemergence greenhouse test, plant response rating 0-100
Method in brief: (§1)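 Plants were treated either at seeding (soil of loam and sand) or as 2–18 cm seedlings in a sphagnum peat mix, using test chemicals in a surfactant-containing non-phytotoxic solvent. Visual assessment relative to controls followed 13–15 days later.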

[3] = system: barnyardgrass (Echinochloa crus-galli); experiment: as above
Method in brief: as §1

[4] = system: oilseed rape (Brassica napus); experiment: as above
Method in brief: as §1

[5] = system: sedge, umbrella (small-flower umbrella sedge, Cyperus difformis); experiment: Test B flooded paddy test, plant response rating 0-100; conditions: Flood, 250 g ai/ha; scale 0 to 100 (0 no effect, 100 complete control); 13 to 15 days
Method in brief: (§2)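 Test compounds are applied straight into paddy water held 3 cm above the soil surface, with that flood maintained for the whole test. After 13 to 15 days in the greenhouse, each species is scored visually relative to controls.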

rice (Oryza sativa) = experiment: as above; conditions: Flood, 250 g ai/ha; scale 0 to 100 (0 no effect, 100 complete control); 13 to 15 days
Method in brief: as §2

[6] = system: barnyardgrass (Echinochloa crus-galli); experiment: as above; conditions: Flood, 250 g ai/ha; scale 0 to 100 (0 no effect, 100 complete control); 13 to 15 days
Method in brief: as §2

[7] = system: ducksalad (Heteranthera limosa); experiment: as above; conditions: Flood, 250 g ai/ha; scale 0 to 100 (0 no effect, 100 complete control); 13 to 15 days
Method in brief: as §2

[8] = system: surinam grass (Brachiaria decumbens); experiment: Test C postemergence greenhouse test, plant response rating 0-100; conditions: for Plant response rating, Surinam Grass: scale 0 to 100
Method in brief: (§3)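 Visual rating vs. controls, 0 (no effect) to 100 (complete control), 13–15 d after postemergence treatment. Potted plants, 1- to 4-leaf stage (2–18 cm), greenhouse-held.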

[9] = system: deadnettle (henbit deadnettle, Lamium amplexicaule); experiment: as above; conditions: for Plant response rating, Deadnettle: scale 0 to 100
Method in brief: as §3

[10] = system: downy bromegrass (Bromus tectorum); experiment: as above; conditions: for Plant response rating, Bromegrass, Downy: scale 0 to 100
Method in brief: as §3

[11] = system: goosegrass (Eleusine indica); experiment: as above; conditions: for Plant response rating, Goosegrass: scale 0 to 100
Method in brief: as §3

[12] = system: canarygrass (Phalaris minor); experiment: as above; conditions: for Plant response rating, Canarygrass: scale 0 to 100
Method in brief: as §3

[13] = system: woolly cupgrass (Eriochloa villosa); experiment: as above; conditions: for Plant response rating, Cupgrass, Woolly: scale 0 to 100
Method in brief: as §3

[14] = system: bermudagrass (Cynodon dactylon); experiment: as above; conditions: for Plant response rating, Bermudagrass: scale 0 to 100
Method in brief: as §3

[15] = system: cocklebur (common cocklebur, Xanthium strumarium); experiment: as above; conditions: for Plant response rating, Cocklebur: scale 0 to 100
Method in brief: as §3

[16] = system: green foxtail (Setaria viridis); experiment: as above; conditions: for Plant response rating, Foxtail, Green: scale 0 to 100
Method in brief: as §3

[17] = Postemergence, 250 g ai/ha, scale 0 to 100
[18] = Postemergence, 500 g ai/ha, scale 0 to 100

O=Cn1cc(C(=O)c2ccccc2)c(-c2cc(Cl)cc(Cl)c2)n1 [Compound 28]
60: Plant response rating, Waterhemp_RES2 ([1]; 62 g ai/ha)
98: Plant response rating (0 to 100), Waterhemp ([2]; Postemergence, 125 g ai/ha) | Plant response rating, Waterhemp [2, 17] | Plant response rating, Oilseed Rape ([4]; Preemergence, 250 g ai/ha)
85: Plant response rating, Waterhemp_RES2 ([1]; 250 g ai/ha) | Plant response rating (0 to 100), Oilseed Rape ([4]; Postemergence, 125 g ai/ha) | Plant response rating, Oilseed Rape [4, 17]
90: Plant response rating, Waterhemp_RES2 ([1]; 500 g ai/ha)
50: Plant response rating, Waterhemp_RES2 ([1]; 31 g ai/ha)
100: Plant response rating, Waterhemp [2, 18] | Plant response rating, Waterhemp ([2]; Preemergence, 62 g ai/ha) | Plant response rating, Waterhemp ([2]; Preemergence, 125 g ai/ha) | Plant response rating, Waterhemp ([2]; Preemergence, 250 g ai/ha) | Plant response rating, Waterhemp ([2]; Preemergence, 500 g ai/ha) | Plant response rating, Oilseed Rape ([4]; Preemergence, 500 g ai/ha)
95: Plant response rating (0 to 100), Waterhemp ([2]; Postemergence, 62 g ai/ha) | Plant response rating, Oilseed Rape [4, 18]
80: Plant response rating, Waterhemp_RES2 ([1]; 125 g ai/ha) | Plant response rating (0 to 100), Oilseed Rape ([4]; Postemergence, 62 g ai/ha)
5: Plant response rating, Oilseed Rape ([4]; Preemergence, 62 g ai/ha)
30: Plant response rating, Oilseed Rape ([4]; Preemergence, 125 g ai/ha)
0: Plant response rating (0 to 100), Barnyardgrass ([3]; Postemergence, 62 g ai/ha) | Plant response rating, Barnyardgrass ([3]; Postemergence, 125 g ai/ha, scale 0 to 100) | Plant response rating, Barnyardgrass [3, 17] | Plant response rating, Barnyardgrass [3, 18] | Plant response rating, Barnyardgrass ([3]; Preemergence, 62 g ai/ha) | Plant response rating, Barnyardgrass ([3]; Preemergence, 125 g ai/ha) | Plant response rating, Barnyardgrass ([3]; Preemergence, 250 g ai/ha) | Plant response rating, Barnyardgrass ([3]; Preemergence, 500 g ai/ha) | Plant response rating, Sedge, Umbrella [5] | Plant response rating, Rice (rice (Oryza sativa)) | Plant response rating, Barnyardgrass [6] | Plant response rating, Ducksalad [7]

Fc1ccc(NN=C(c2ccccc2)c2c[nH]nc2-c2cc(Cl)cc(Cl)c2)cc1 [Compound 35]
20: Plant response rating, Foxtail, Green ([16]; 500 g ai/ha)
75: Plant response rating, Cocklebur ([15]; 250 g ai/ha) | Plant response rating, Cocklebur ([15]; 500 g ai/ha)
60: Plant response rating (0 to 100), Cocklebur ([15]; 62 g ai/ha) | Plant response rating (0 to 100), Cocklebur ([15]; 125 g ai/ha)
5: Plant response rating (0 to 100), Cupgrass, Woolly ([13]; 62 g ai/ha) | Plant response rating (0 to 100), Cupgrass, Woolly ([13]; 125 g ai/ha) | Plant response rating, Cupgrass, Woolly ([13]; 250 g ai/ha) | Plant response rating, Cupgrass, Woolly ([13]; 500 g ai/ha)
0: Plant response rating (0 to 100), Surinam Grass ([8]; 62 g ai/ha) | Plant response rating (0 to 100), Surinam Grass ([8]; 125 g ai/ha) | Plant response rating, Surinam Grass ([8]; 250 g ai/ha) | Plant response rating, Surinam Grass ([8]; 500 g ai/ha) | Plant response rating (0 to 100), Deadnettle ([9]; 62 g ai/ha) | Plant response rating (0 to 100), Deadnettle ([9]; 125 g ai/ha) | Plant response rating, Deadnettle ([9]; 250 g ai/ha) | Plant response rating, Deadnettle ([9]; 500 g ai/ha) | Plant response rating (0 to 100), Bromegrass, Downy ([10]; 62 g ai/ha) | Plant response rating (0 to 100), Bromegrass, Downy ([10]; 125 g ai/ha) | Plant response rating, Bromegrass, Downy ([10]; 250 g ai/ha) | Plant response rating, Bromegrass, Downy ([10]; 500 g ai/ha) | Plant response rating (0 to 100), Goosegrass ([11]; 62 g ai/ha) | Plant response rating (0 to 100), Goosegrass ([11]; 125 g ai/ha) | Plant response rating, Goosegrass ([11]; 250 g ai/ha) | Plant response rating, Goosegrass ([11]; 500 g ai/ha) | Plant response rating (0 to 100), Canarygrass ([12]; 62 g ai/ha) | Plant response rating (0 to 100), Canarygrass ([12]; 125 g ai/ha) | Plant response rating, Canarygrass ([12]; 250 g ai/ha) | Plant response rating, Canarygrass ([12]; 500 g ai/ha) | Plant response rating (0 to 100), Bermudagrass ([14]; 62 g ai/ha) | Plant response rating (0 to 100), Bermudagrass ([14]; 125 g ai/ha) | Plant response rating, Bermudagrass ([14]; 250 g ai/ha) | Plant response rating, Bermudagrass ([14]; 500 g ai/ha) | Plant response rating (0 to 100), Foxtail, Green ([16]; 62 g ai/ha) | Plant response rating (0 to 100), Foxtail, Green ([16]; 125 g ai/ha) | Plant response rating, Foxtail, Green ([16]; 250 g ai/ha) | Plant response rating, Sedge, Umbrella [5] | Plant response rating, Rice (rice (Oryza sativa)) | Plant response rating, Barnyardgrass [6] | Plant response rating, Ducksalad [7]
